The values below come from patent publication US12290535B2, “Langerin+ cell targeting” (Max-Planck-Gesellschaft zur Förderung der Wissenschaften …, priority 2018, dated 2025).

The term Kd denotes the concentration at which binding is half-saturated. A low value points to a tighter complex.

For this assay, the target named is T1, Langerin CRD (Homo sapiens, UniProt Q9UJ71, V278A).
T1 construct: residues 193 to 328; made in house; host or cells: E. coli BL21* (DE3)
The experiment in a line: 15N HSQC NMR titration (KD determination). It is filed as binding. How it is done:
Langerin and DC-SIGN carbohydrate recognition domain. Expression and purification were conducted as previously published. Briefly, the monomeric ^15N-labeled Langerin and DC-SIGN carbohydrate recognition domains (CRDs) were expressed insolubly in E. coli BL21* (DE3) (Invitrogen). Following enzymatic cell lysis, inclusion bodies were harvested and subsequently solubilized. The sample was centrifuged and the Langerin and DC-SIGN CRDs were refolded overnight via rapid dilution. Next, the sample was dialyzed overnight, centrifuged and purified via StrepTactin affinity chromatography (Iba). […] The concentration of Langerin and DC-SIGN CRDs was determined via UV spectroscopy (A280, 0.1%=3.19 and A280, 0.1%=2.98). Purity and monodispersity of Langerin and DC-SIGN CRD samples were analyzed via SDS PAGE and DLS. […]
KD determination. KD values were determined in titration experiments at six ligand concentrations [L]T. Samples were prepared via serial dilution. Chemical shift perturbations CSPs for Langerin CRD resonances in the fast or fast-to-intermediate exchange regime observed upon titration with ligand were calculated via Equation 1 (Williamson, M. P. Using Chemical Shift Perturbation to Characterise Ligand Binding. Prog Nucl Magn Reson Spectrosc 73, 1-16 (2013)). […]

T1 sequence (Q9UJ71 193-328 V278A): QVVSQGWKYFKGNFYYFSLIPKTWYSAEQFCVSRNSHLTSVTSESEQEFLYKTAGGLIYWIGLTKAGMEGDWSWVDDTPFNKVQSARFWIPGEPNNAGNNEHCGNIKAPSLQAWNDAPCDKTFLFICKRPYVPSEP

In turn, `CC(=O)NCCO[C@H]1O[C@H](CO)[C@@H](O)[C@H](O)[C@@H]1O` [Man analog 21] showed a Kd of 12 ± 1 mM.
